Patent publication US11505575B2, “Cyclic polypeptides for PCSK9 inhibition” (Merck Sharp & Dohme LLC, priority 2018, dated 2022)
*1 amine or outer side, *2 acyl side, *3 side chain or, on linkers, in order; H or OH if unused. Where a SMILES comes first, the peptide text is derived from it. Bridges are numbered along the chain shown (N, C = ends). [ ]: non-standard residue; d: D form. 3Aminoazetidine3carboxyl = O=C(C1(N[*:1])CN([*:3])C1)[*:2]; Ala(benzothiazol-2-yl) = N[C@@H](Cc1nc2ccccc2s1)C(=O)O; Phe(4-guanidino) = N=C(N)Nc1ccc(C[C@H](N)C(=O)O)cc1; X4 = O=C([C@H](Cc1cc2cc(F)ccc2[nH]1)N[*:1])[*:2]; Trp(5-F) = N[C@@H](Cc1c[nH]c2ccc(F)cc12)C(=O)O; Trp(7-aza) = N[C@@H](Cc1c[nH]c2ncccc12)C(=O)O; hAad = O=C([C@H](CCCCC(=O)[*:3])N[*:1])[*:2]; mXylylene(5-F) = Fc1cc(C[*:1])cc(C[*:2])c1; mXylylene = c1cc(C[*:1])cc(C[*:2])c1; d(aThr) = C[C@@H](O)[C@@H](N)C(=O)O; aThr = C[C@H](O)[C@H](N)C(=O)O; αMeOrn = C[C@](N)(CCCN)C(=O)O; Agp = N=C(N)NC[C@H](N)C(=O)O; Chg = N[C@H](C(=O)O)C1CCCCC1; Tle = CC(C)(C)[C@H](N)C(=O)O; αMeV = CC(C)[C@](C)(N)C(=O)O; Dab = NCC[C@H](N)C(=O)O; Nva = CCC[C@H](N)C(=O)O; Aib = CC(C)(N)C(=O)O; Ahx = NCCCCCC(=O)O; GABA = NCCCC(=O)O; Mpa = O=C(O)CCS

Assays:
PCSK9 = target: T1, PCSK9 (Homo sapiens, UniProt Q8NBP7); test: PCSK9 Alexa FRET Standard assay (displacement of AlexaFluor647-tagged cyclic peptide Reagent A); assay type: binding; conditions: 0.5 nM PCSK9, 20 nM AF cyclic peptide Reagent A
T1 construct: biotin (biotinylated)
T1 sequence (Q8NBP7 153-692): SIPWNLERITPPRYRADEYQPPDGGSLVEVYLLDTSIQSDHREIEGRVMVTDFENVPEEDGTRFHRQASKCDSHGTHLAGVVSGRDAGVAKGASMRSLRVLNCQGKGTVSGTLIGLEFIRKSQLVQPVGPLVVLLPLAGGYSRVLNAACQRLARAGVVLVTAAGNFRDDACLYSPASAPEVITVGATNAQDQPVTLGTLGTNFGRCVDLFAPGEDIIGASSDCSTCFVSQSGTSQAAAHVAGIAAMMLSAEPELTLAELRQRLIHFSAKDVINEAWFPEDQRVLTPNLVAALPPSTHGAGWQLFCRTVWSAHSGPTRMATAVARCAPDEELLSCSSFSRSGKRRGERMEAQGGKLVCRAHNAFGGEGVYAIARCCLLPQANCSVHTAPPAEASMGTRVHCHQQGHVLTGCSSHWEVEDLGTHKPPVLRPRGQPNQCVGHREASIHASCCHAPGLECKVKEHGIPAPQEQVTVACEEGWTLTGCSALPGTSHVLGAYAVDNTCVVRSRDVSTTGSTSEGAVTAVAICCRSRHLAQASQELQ
Procedure: A solution containing 1 nM biotinylated PCSK9+2.5 nM Lance Streptavidin Europium (Strep-Eu) was made in 50 mM HEPES pH 7.4, 0.15 M NaCl, 5 mM CaCl2, 0.01% BSA, and 0.01% Surfactant P20. A separate solution containing 40 nM of the AlexaFluor tagged cyclic peptide was made in the same buffer system. An Echo was used to transfer 0.750 ul of compound to an assay plate followed by the addition of 15 ul of PCSK9+Stept-Eu and 15 ul of AF peptide. The final assay volume was 30.750 ul containing 0.5 nM PCSK9, 1.25 nM Strep-Eu, and 20 nM AF cyclic peptide. The reaction was incubated at room temperature for at least two hours prior to fluorescence measurements using an Envision Multilabel Reader. IC50 values were determined by fitting data to a sigmoidal dose-response curve using nonlinear regression. Ki was then calculated from the IC50 and the KD of AF cyclic peptide. Counts (B-counts) of the europium-labeled PCSK9 were followed to observe if compounds were […]. A fall off of the B-counts likely indicated a false positive of inhibition. Data from this procedure was reported as “A=‘numerical value’ (nanomolar)”

[1] = target: human PCSK9 / human LDLR EGFa domain interaction (Homo sapiens, UniProt Q8NBP7); test: TR-FRET assay of inhibition of the PCSK9-LDLR protein-protein interaction; assay type: binding; conditions: 20 nM biotinylated human PCSK9 + 20 nM his-tagged human LDLR EGFa domain, 2 hours room temperature
Chain of human PCSK9 / human LDLR EGFa domain interaction (Q8NBP7 153-692): as above
Chain of human PCSK9 / human LDLR EGFa domain interaction (Q8NBP7 31-152 partner limits assumed): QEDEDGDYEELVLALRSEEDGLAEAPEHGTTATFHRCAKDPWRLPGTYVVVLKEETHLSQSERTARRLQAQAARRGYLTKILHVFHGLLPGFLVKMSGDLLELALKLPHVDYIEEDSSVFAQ
Procedure: A time-resolved fluorescence resonance energy (TR-FRET) assay was used to measure inhibition of the PCSK9-LDLR protein-protein interaction. Briefly, 20 nM avitag-biotinylated human PCSK9 was incubated with 20 nM his-tagged human LDLR EGFa domain in the presence of 5 nM LANCE Ulight Streptavidin (Perkin Elmer) and 5 nM europium-Anti-6×His (Perkin Elmer) for 2 hours covered at room temperature in buffer containing 50 mM HEPES, 150 mM NaCl, 5 mM CaCl2, 0.01% BSA and 0.01% Surfactant P20. Compounds were tested in dose-response and concentrations giving half-maximal inhibition calculated using a 4-parameter fit equation.

| SMILES | IC50 (PCSK9) | IC50 [1] |
| --- | --- | --- |
| CCC[C@H](NC(=O)[C@H](CCCCN)NC(C)=O)C(=O)N[C@H]1CSCc2cccc(c2)CSC[C@@H](C(N)=O)NC(=O)[C@H]([C@@H](C)O)NC(=O)[C@H](C2CCCCC2)NC(=O)[C@H](Cc2c[nH]c3ncccc23)NC(=O)[C@H](Cc2cnc[nH]2)NC(=O)[C@H](CCC(=O)O)NC(=O)[C@H](Cc2c[nH]c3ncccc23)NC(=O)[C@H]([C@@H](C)O)NC(=O)[C@@H]2CCCN2C(=O)[C@H](Cc2ccc(O)cc2)NC(=O)[C@H](C(C)(C)C)NC1=O [Compound 002] (Ac-K[Nva]C[Tle]YPT[Trp(7-aza)]EH[Trp(7-aza)][Chg]TC-NH2; linker 3-14 via mXylylene) | 1 to 100 nM | 1 to 100 nM |
| CC1O[C@@H](C)[C@@H]2NC(=O)[C@@]1(C)NC(=O)[C@H](Cc1ccc(O)cc1)NC(=O)[C@H](C)NC(=O)C(C)(C)NC(=O)[C@H](Cc1c[nH]c3ncccc13)NC(=O)[C@H]([C@@H](C)O)NC(=O)[C@@H]1CCCN1C(=O)[C@H](Cc1ccc(O)cc1)NC(=O)[C@H](C(C)(C)C)NC(=O)CCSCc1cccc(c1)CSC[C@@H](C(N)=O)NC2=O (stereo partly shown) [Compound 017] | 1 to 100 nM | 100 to 1000 nM |
| CC(C)[C@]1(C)NC(=O)[C@H](Cc2ccc(O)cc2)NC(=O)[C@H](C)NC(=O)C(C)(C)NC(=O)[C@H](Cc2c[nH]c3ncccc23)NC(=O)[C@H]([C@@H](C)O)NC(=O)[C@@H]2CCCN2C(=O)[C@H](Cc2ccc(O)cc2)NC(=O)[C@H](C(C)(C)C)NC(=O)CCSCc2cccc(c2)CSC[C@@H](C(N)=O)NC(=O)[C@H](CO)NC1=O [Compound 018] ([Mpa][Tle]YPT[Trp(7-aza)][Aib]AY[αMeV]SC-NH2; linker 1-12 via mXylylene) | 1 to 100 nM | 1 to 100 nM |
| CC(C)[C@]1(C)NC(=O)[C@H](Cc2ccc(O)cc2)NC(=O)[C@H](C)NC(=O)C(C)(C)NC(=O)[C@H](Cc2c[nH]c3ncccc23)NC(=O)[C@H]([C@@H](C)O)NC(=O)[C@@H]2CCCN2C(=O)[C@H](Cc2ccc(O)cc2)NC(=O)[C@H](C(C)(C)C)NC(=O)CCSCc2cccc(c2)CSC[C@@H](C(N)=O)NC(=O)[C@H](CCCCN)NC1=O [Compound 019] ([Mpa][Tle]YPT[Trp(7-aza)][Aib]AY[αMeV]KC-NH2; linker 1-12 via mXylylene) | 1000 to 12100 nM | 21000 to 50000 nM |
| CC(C)[C@]1(C)NC(=O)[C@H](Cc2ccc(O)cc2)NC(=O)[C@H](C)NC(=O)[C@](C)(CCCN)NC(=O)[C@H](Cc2c[nH]c3ncccc23)NC(=O)[C@H]([C@@H](C)O)NC(=O)[C@@H]2CCCN2C(=O)[C@H](Cc2ccc(O)cc2)NC(=O)[C@H](C(C)(C)C)NC(=O)CCSCc2cccc(c2)CSC[C@H](C(N)=O)NC(=O)[C@H]([C@@H](C)O)NC1=O [Compound 025] ([Mpa][Tle]YPT[Trp(7-aza)][αMeOrn]AY[αMeV]T[dC]-NH2; linker 1-12 via mXylylene) | 1 to 100 nM |  |
| CC(=O)N[C@H]1CSCc2cc(F)cc(c2)CSC[C@@H](C(N)=O)NC(=O)[C@H]([C@@H](C)O)NC(=O)[C@](C)(C(C)C)NC(=O)[C@H](Cc2ccc(O)cc2)NC(=O)[C@H](C)NC(=O)C(C)(C)NC(=O)[C@H](Cc2c[nH]c3ncccc23)NC(=O)[C@H]([C@@H](C)O)NC(=O)[C@@H]2CCCN2C(=O)[C@H](Cc2ccc(O)cc2)NC(=O)[C@H](C(C)(C)C)NC1=O [Compound 026] (Ac-C[Tle]YPT[Trp(7-aza)][Aib]AY[αMeV]TC-NH2; linker 1-12 via mXylylene(5-F)) | 1 to 100 nM |  |
| CC(=O)N[C@H]1CSCc2cccc(c2)CSC[C@H](C(N)=O)NC(=O)[C@H]([C@@H](C)O)NC(=O)[C@](C)(C(C)C)NC(=O)[C@H](Cc2ccc(O)cc2)NC(=O)[C@H](C)NC(=O)C(C)(C)NC(=O)[C@H](Cc2c[nH]c3ncccc23)NC(=O)[C@H]([C@H](C)O)NC(=O)[C@@H]2CCCN2C(=O)[C@H](Cc2ccc(O)cc2)NC(=O)[C@H](C(C)(C)C)NC1=O [Compound 029] (Ac-C[Tle]YP[aThr][Trp(7-aza)][Aib]AY[αMeV]T[dC]-NH2; linker 1-12 via mXylylene) | 100 to 1000 nM |  |
| CC(=O)N[C@H]1CSCc2cccc(c2)CSC[C@H](C(N)=O)NC(=O)[C@H]([C@@H](C)O)NC(=O)[C@](C)(C(C)C)NC(=O)[C@H](Cc2ccc(O)cc2)NC(=O)[C@H](C)NC(=O)[C@](C)(CCCN)NC(=O)[C@H](Cc2c[nH]c3ncccc23)NC(=O)[C@H]([C@@H](C)O)NC(=O)[C@@H]2CCCN2C(=O)[C@H](Cc2ccc(O)cc2)NC(=O)[C@H](C(C)(C)C)NC1=O [Compound 033] (Ac-C[Tle]YPT[Trp(7-aza)][αMeOrn]AY[αMeV]T[dC]-NH2; linker 1-12 via mXylylene) | 1 to 100 nM |  |
| CC(=O)N[C@H]1CSCc2cccc(c2)CSC[C@H](C(N)=O)NC(=O)[C@H]([C@@H](C)O)NC(=O)[C@](C)(C(C)C)NC(=O)[C@H](Cc2ccc(O)cc2)NC(=O)[C@H](C)NC(=O)C2(CNC2)NC(=O)[C@H](Cc2c[nH]c3ncccc23)NC(=O)[C@H]([C@@H](C)O)NC(=O)[C@@H]2CCCN2C(=O)[C@H](Cc2ccc(O)cc2)NC(=O)[C@H](C(C)(C)C)NC1=O [Compound 038] (Ac-C[Tle]YPT[Trp(7-aza)][3Aminoazetidine3carboxyl]AY[αMeV]T[dC]-NH2; linker 1-12 via mXylylene) | 1 to 100 nM |  |
| CCC[C@@H]1NC(=O)[C@H](Cc2nc3ccccc3s2)NC(=O)[C@H]([C@@H](C)O)NC(=O)[C@H](Cc2cnc[nH]2)NC(=O)[C@H](Cc2ccc(O)cc2)NC(=O)[C@H](C(C)(C)C)NC(=O)CCSCc2cccc(c2)CSC[C@@H](C(N)=O)NC(=O)[C@H]([C@@H](C)O)NC(=O)[C@H](CCC)NC(=O)[C@H](Cc2ccc(O)cc2)NC(=O)[C@H](CCC(=O)O)NC1=O [Compound 084] ([Mpa][Tle]YHT[Ala(benzothiazol-2-yl)][Nva]EY[Nva]TC-NH2; linker 1-12 via mXylylene) |  | 100 to 1000 nM |
| CCC[C@@H]1NC(=O)[C@H](Cc2c[nH]c3ncccc23)NC(=O)[C@H]([C@@H](C)O)NC(=O)[C@H](CNC(=N)N)NC(=O)[C@H](Cc2cc3cc(F)ccc3[nH]2)NC(=O)[C@H](Cc2cc3cc(F)ccc3[nH]2)NC(=O)[C@@H](NC(=O)[C@H](Cc2ccc(NC(=N)N)cc2)NC(C)=O)CSCc2cccc(c2)CSC[C@@H](C(N)=O)NC(=O)[C@H]([C@@H](C)O)NC(=O)[C@H](CCC)NC(=O)[C@H](Cc2ccc(O)cc2)NC(=O)[C@H](CCC(=O)O)NC1=O [Compound 092] (Ac-[Phe(4-guanidino)]C[X4][X4][Agp]T[Trp(7-aza)][Nva]EY[Nva]TC-NH2; linker 2-13 via mXylylene) |  | 100 to 1000 nM |
| CCC[C@@H]1NC(=O)[C@H](Cc2c[nH]c3ncccc23)NC(=O)[C@H]([C@@H](C)O)NC(=O)[C@H](CNC(=N)N)NC(=O)[C@H](Cc2c[nH]c3ccc(F)cc23)NC(=O)[C@H](C(C)(C)C)NC(=O)[C@@H](NC(=O)[C@H](Cc2ccc(NC(=N)N)cc2)NC(C)=O)CSCc2cccc(c2)CSC[C@@H](C(N)=O)NC(=O)[C@H]([C@@H](C)O)NC(=O)[C@H](CCC)NC(=O)[C@H](Cc2ccc(O)cc2)NC(=O)[C@H](CCC(=O)O)NC1=O [Compound 093] (Ac-[Phe(4-guanidino)]C[Tle][Trp(5-F)][Agp]T[Trp(7-aza)][Nva]EY[Nva]TC-NH2; linker 2-13 via mXylylene) |  | 100 to 1000 nM |
| CCC[C@@H]1NC(=O)[C@H](Cc2c[nH]c3ncccc23)NC(=O)[C@@H]([C@@H](C)O)NC(=O)[C@@H]2CCCCC(=O)NCC[C@H](NC1=O)C(=O)N[C@@H](Cc1ccc(O)cc1)C(=O)N[C@@H](C1CCCCC1)C(=O)N[C@@H]([C@@H](C)O)C(=O)N[C@H](C(N)=O)CSCc1cccc(c1)CSCCC(=O)N[C@@H](C(C)(C)C)C(=O)N[C@@H](Cc1ccc(O)cc1)C(=O)N2 [Compound 108] ([Mpa][Tle]Y[hAad][d(aThr)][Trp(7-aza)][Nva][Dab]Y[Chg]TC-NH2; linker 1-12 via mXylylene; lactam 4-8) |  | 100 to 1000 nM |
| CCC[C@@H]1NC(=O)[C@H](Cc2c[nH]c3ncccc23)NC(=O)[C@H]([C@@H](C)O)NC(=O)[C@@H]2CCCCNC(=O)CC[C@H](NC1=O)C(=O)N[C@@H](Cc1ccc(O)cc1)C(=O)NC(C)(C)C(=O)N[C@@H]([C@@H](C)O)C(=O)N[C@H](C(N)=O)CSCc1cccc(c1)CSCCC(=O)N[C@@H](C(C)(C)C)C(=O)N[C@@H](Cc1ccc(O)cc1)C(=O)N2 [Compound 114] ([Mpa][Tle]YKT[Trp(7-aza)][Nva]EY[Aib]TC-NH2; linker 1-12 via mXylylene; lactam 4-8) |  | 100 to 1000 nM |
| CCC[C@@H]1NC(=O)[C@H](Cc2c[nH]c3ncccc23)NC(=O)[C@H]([C@@H](C)O)NC(=O)[C@@H]2CCCCNC(=O)CC[C@@H](NC1=O)C(=O)N[C@@H](Cc1ccc(O)cc1)C(=O)N[C@@H](C1CCCCC1)C(=O)N[C@@H]([C@@H](C)O)C(=O)NCCCC(=O)NCCCCCC(=O)N[C@@H](C(C)(C)C)C(=O)N[C@@H](Cc1ccc(O)cc1)C(=O)N2 [Compound 117] (cyclo([Ahx][Tle]YKT[Trp(7-aza)][Nva][dE]Y[Chg]T[GABA]); lactam 4-8) |  | 100 to 1000 nM |
